Test system: KRAS G12V dependent lung adenocarcinoma cell line, NCI-H441
Test: Cellular pERK (Thr202/Tyr204) FRET/HTRF assay
Assay type: cell-based
Settings: NCI-H441 (KRAS G12V) cells
Summary of the method: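 IC50 reflects inhibition of ERK1/2 Thr202/Tyr204 phosphorylation, quantified by HTRF after a 1 hr treatment of KRAS G12V-driven NCI-H441 cells. DMSO served as negative control.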

[1] = Homo sapiens, NCI-H441, cellular pERK HTRF

Row | SMILES | IC50 [1] [nM] | IC50 (cellular pERK HTRF) [nM]
1 | [2H]C([2H])(Oc1nc(N2CCOC[C@H]3[C@H](F)[C@H]32)c2cnc(-c3cc(N)cc4ccc(F)c(C#C)c34)c(CC)c2n1)[C@@]12CCCN1C[C@H](F)C2 [Example 456, 4-(8-Ethyl-4-((1S,7S,8S)-8-fluoro-5-oxa-2-azabicyclo[5.1.0]octan-2-yl)-2-(((2R,7aS)-2-fluorotetrahydro-1H-pyrrolizin-7a(5H)-yl)methoxy-d2)pyrido[4,3-d]pyrimidin-7-yl)-5-ethynyl-6-fluoronaphthalen-2-amine] | < 50 | –
2 | C#Cc1c(F)ccc2cc(N)cc(-c3ncc4c(N5CCOC[C@H]6[C@H](Cl)[C@H]65)nc(OC[C@]56CC(=C)CN5CCC65CC5)nc4c3C)c12 [Example 459, 4-(4-((1S,7S,8S)-8-Chloro-5-oxa-2-azabicyclo[5.1.0]octan-2-yl)-8-methyl-2-(((R)-6′-methylenetetrahydrospiro[cyclopropane-1,1′-pyrrolizin]-7a′(5′H)-yl)methoxy)pyrido[4,3-d]pyrimidin-7-yl)-5-ethynyl-6-fluoronaphthalen-2-amine] | < 50 | –
3 | [2H]C([2H])(Oc1nc(N2CCCC[C@H]3[C@H](F)[C@H]32)c2cnc(-c3cc(N)cc4ccc(F)c(C#C)c34)c(C)c2n1)[C@@]12CCCN1C[C@H](F)C2 [Example 460, 5-Ethynyl-6-fluoro-4-(4-((1S,7R,8S)-8-fluoro-2-azabicyclo[5.1.0]octan-2-yl)-2-(((2R,7aS)-2-fluorotetrahydro-1H-pyrrolizin-7a(5H)-yl)methoxy-d2)-8-methylpyrido[4,3-d]pyrimidin-7-yl)naphthalen-2-amine] | < 50 | –
4 | [2H]C([2H])(Oc1nc(N2CCCC[C@H]3[C@H](F)[C@H]32)c2cnc(-c3cc(O)cc4ccc(F)c(C#C)c34)c(C)c2n1)[C@]12CC(=C)CN1CCC21CC1 [Example 462, 5-Ethynyl-6-fluoro-4-(4-((1S,7R,8S)-8-fluoro-2-azabicyclo[5.1.0]octan-2-yl)-8-methyl-2-(((R)-6′-methylenetetrahydrospiro[cyclopropane-1,1′-pyrrolizin]-7a′(5′H)-yl)methoxy-d2)pyrido[4,3-d]pyrimidin-7-yl)naphthalen-2-ol] | < 50 | –
5 | [2H]C([2H])(Oc1nc(N2CCOC[C@H]3[C@H](F)[C@H]32)c2cc(F)c(-c3cc(O)cc4ccc(F)c(C#C)c34)c(C)c2n1)[C@@]12CCCN1C[C@H](F)C2 [Example 469, 5-ethynyl-6-fluoro-4-((S)-6-fluoro-4-((1S,7S,8S)-8-fluoro-5-oxa-2-azabicyclo[5.1.0]octan-2-yl)-2-(((2R,7aS)-2-fluorotetrahydro-1H-pyrrolizin-7a(5H)-yl)methoxy-d2)-8-methylquinazolin-7-yl)naphthalen-2-ol] | – | < 50
6 | [2H]C([2H])(Oc1nc(N2CCOC[C@H]3[C@H](F)[C@H]32)c2cnc(-c3cc(O)cc4ccc(F)c(C#C)c34)c(C)c2n1)[C@@]12CCCN1[C@H](C)[C@H](F)C2 [Example 471, 5-ethynyl-6-fluoro-4-(2-(((2R,3R,7aS)-2-fluoro-3-methyltetrahydro-1H-pyrrolizin-7a(5H)-yl)methoxy-d2)-4-((1S,7S,8S)-8-fluoro-5-oxa-2-azabicyclo[5.1.0]octan-2-yl)-8-methylpyrido[4,3-d]pyrimidin-7-yl)naphthalen-2-ol] | < 50 | –
7 | [2H]C([2H])(Oc1nc(N2CCOC[C@H]3[C@H](F)[C@H]32)c2cnc(-c3cc(O)cc4ccc(F)c(C#C)c34)c(F)c2n1)[C@@]12CCCN1[C@H](C)[C@H](F)C2 [Example 472, 5-ethynyl-6-fluoro-4-(8-fluoro-2-(((2R,3R,7aS)-2-fluoro-3-methyltetrahydro-1H-pyrrolizin-7a(5H)-yl)methoxy-d2)-4-((1S,7S,8S)-8-fluoro-5-oxa-2-azabicyclo[5.1.0]octan-2-yl)pyrido[4,3-d]pyrimidin-7-yl)naphthalen-2-ol] | < 50 | –
8 | [2H]C([2H])(Oc1nc(N2CCCC[C@H]3[C@H](F)[C@H]32)c2cnc(-c3cc(O)cc4ccc(F)c(C#C)c34)c(C)c2n1)[C@@]12CCCN1[C@H](C)[C@H](F)C2 [Example 473, 5-ethynyl-6-fluoro-4-(2-(((2R,3R,7aS)-2-fluoro-3-methyltetrahydro-1H-pyrrolizin-7a(5H)-yl)methoxy-d2)-4-((1S,7R,8S)-8-fluoro-2-azabicyclo[5.1.0]octan-2-yl)-8-methylpyrido[4,3-d]pyrimidin-7-yl)naphthalen-2-ol] | < 50 | –
9 | [2H]C([2H])(Oc1nc(N2CCCC[C@H]3[C@H](F)[C@H]32)c2cnc(-c3cc(O)cc4ccc(F)c(C#C)c34)c(F)c2n1)[C@@]12CCCN1[C@H](C)[C@H](F)C2 [Example 474, 5-ethynyl-6-fluoro-4-(8-fluoro-2-(((2R,3R,7aS)-2-fluoro-3-methyltetrahydro-1H-pyrrolizin-7a(5H)-yl)methoxy-d2)-4-((1S,7R,8S)-8-fluoro-2-azabicyclo[5.1.0]octan-2-yl)pyrido[4,3-d]pyrimidin-7-yl)naphthalen-2-ol] | < 50 | –

Other lines, results leading:

Row | IC50 [1] [nM] | IC50 (cellular pERK HTRF) [nM] | SMILES
10 | < 50 | – | [2H]C([2H])(Oc1nc(N2CCOC[C@H]3[C@H](F)[C@H]32)c2cnc(-c3cc(N)cc4ccc(F)c(C#C)c34)c(C=C)c2n1)[C@@]12CCCN1C[C@H](F)C2 [Example 455, 5-ethynyl-6-fluoro-4-(4-((1S,7S,8S)-8-fluoro-5-oxa-2-azabicyclo[5.1.0]octan-2-yl)-2-(((2R,7aS)-2-fluorotetrahydro-1H-pyrrolizin-7a(5H)-yl)methoxy-d2)-8-vinylpyrido[4,3-d]pyrimidin-7-yl)naphthalen-2-amine]
11 | < 50 | – | [2H]C([2H])(Oc1nc(N2CCCC[C@H]3[C@H](F)[C@H]32)c2cnc(-c3cc(N)cc4ccc(F)c(C#C)c34)c(C)c2n1)[C@@]12CCCN1CC(=C)C2 [Example 457, 5-Ethynyl-6-fluoro-4-(4-((1S,7R,8S)-8-fluoro-2-azabicyclo[5.1.0]octan-2-yl)-8-methyl-2-(((S)-2-methylenetetrahydro-1H-pyrrolizin-7a(5H)-yl)methoxy-d2)pyrido[4,3-d]pyrimidin-7-yl)naphthalen-2-amine]
12 | < 50 | – | [2H]C([2H])(Oc1nc(N2CCCC[C@H]3[C@H](F)[C@H]32)c2cnc(-c3cc(N)cc4ccc(F)c(C#C)c34)c(C)c2n1)[C@]12CC(=C)CN1CCC21CC1 [Example 458, 5-Ethynyl-6-fluoro-4-(4-((1S,7R,8S)-8-fluoro-2-azabicyclo[5.1.0]octan-2-yl)-8-methyl-2-(((R)-6′-methylenetetrahydrospiro[cyclopropane-1,1′-pyrrolizin]-7a′(5′H)-yl)methoxy-d2)pyrido[4,3-d]pyrimidin-7-yl)naphthalen-2-amine]
13 | < 50 | – | [2H]C([2H])(Oc1nc(N2CCCC[C@H]3[C@H](F)[C@H]32)c2cnc(-c3cc(O)cc4ccc(F)c(C#C)c34)c(C)c2n1)[C@@]12CCCN1CC(=C)C2 [Example 461, 5-Ethynyl-6-fluoro-4-(4-((1S,7R,8S)-8-fluoro-2-azabicyclo[5.1.0]octan-2-yl)-8-methyl-2-(((S)-2-methylenetetrahydro-1H-pyrrolizin-7a(5H)-yl)methoxy-d2)pyrido[4,3-d]pyrimidin-7-yl)naphthalen-2-ol]
14 | < 50 | – | [2H]C([2H])(Oc1nc(N2CCCC[C@H]3[C@H](F)[C@H]32)c2cnc(-c3cc(O)cc4ccc(F)c(C#C)c34)c(C)c2n1)[C@@]12CCCN1C[C@H](F)C2 [Example 463, 5-Ethynyl-6-fluoro-4-(4-((1S,7R,8S)-8-fluoro-2-azabicyclo[5.1.0]octan-2-yl)-2-(((2R,7aS)-2-fluorotetrahydro-1H-pyrrolizin-7a(5H)-yl)methoxy-d2)-8-methylpyrido[4,3-d]pyrimidin-7-yl)naphthalen-2-ol]
15 | < 50 | – | [2H]C([2H])(Oc1nc(N2CCCC[C@H]3[C@H](Cl)[C@H]32)c2cnc(-c3cc(N)cc4ccc(F)c(C#C)c34)c(C)c2n1)[C@@]12CCCN1C[C@H](F)C2 [Example 464, 4-(4-((1S,7R,8S)-8-chloro-2-azabicyclo[5.1.0]octan-2-yl)-2-(((2R,7aS)-2-fluorotetrahydro-1H-pyrrolizin-7a(5H)-yl)methoxy-d2)-8-methylpyrido[4,3-d]pyrimidin-7-yl)-5-ethynyl-6-fluoronaphthalen-2-amine]
16 | 500 to 10000 | – | [2H]C([2H])(Oc1nc(N2CCCC[C@@H]3[C@@H](Cl)[C@@H]32)c2cnc(-c3cc(N)cc4ccc(F)c(C#C)c34)c(C)c2n1)[C@@]12CCCN1C[C@H](F)C2 [Example 465, 4-(4-((1R,7S,8R)-8-chloro-2-azabicyclo[5.1.0]octan-2-yl)-2-(((2R,7aS)-2-fluorotetrahydro-1H-pyrrolizin-7a(5H)-yl)methoxy-d2)-8-methylpyrido[4,3-d]pyrimidin-7-yl)-5-ethynyl-6-fluoronaphthalen-2-amine]
17 | < 50 | – | [2H]C([2H])(Oc1nc(N2CCOC[C@H]3[C@H](F)[C@H]32)c2cc(Cl)c(-c3ccc(F)c4sc(N)c(C#N)c34)c(C)c2n1)[C@@]12CCCN1C[C@H](F)C2 [Example 470, 2-amino-4-(6-chloro-4-((1S,7S,8S)-8-fluoro-5-oxa-2-azabicyclo[5.1.0]octan-2-yl)-2-(((2R,7aS)-2-fluorotetrahydro-1H-pyrrolizin-7a(5H)-yl)methoxy-d2)-8-methylquinazolin-7-yl)-7-fluorobenzo[b]thiophene-3-carbonitrile]
18 | < 50 | – | [2H]C([2H])(Oc1nc(N2CCOC[C@H]3[C@H](Cl)[C@H]32)c2cnc(-c3cc(O)cc4ccc(F)c(C#C)c34)c(F)c2n1)[C@@]12CCCN1[C@H](C)[C@H](F)C2 [Example 475, 4-(4-((1S,7S,8S)-8-chloro-5-oxa-2-azabicyclo[5.1.0]octan-2-yl)-8-fluoro-2-(((2R,3R,7aS)-2-fluoro-3-methyltetrahydro-1H-pyrrolizin-7a(5H)-yl)methoxy-d2)pyrido[4,3-d]pyrimidin-7-yl)-5-ethynyl-6-fluoronaphthalen-2-ol]
